Test results as given in publication PMC5623046, “A Simple PB/LIE Free Energy Function Accurately Predicts the Peptide Binding Specificity of the Tiam1 PDZ Domain” (Frontiers in Molecular Biosciences, 2017).
pKd: −log10 of the molar value. Values joined by “and” are separate entries in the source; they are usually repeats but may differ in a detail not shown here. Equal entries are not always repeated. Where two headings read alike, the source gives them in different places. Marks after values point to notes of the source that are not given here.

Experiments:
[1] = target: T1, wildtype Tiam1 PDZ domain (WT) (Homo sapiens, UniProt Q13009); conditions: relative to WT:Sdc1; ref Shepherd et al., [2011]; Liu et al., [2013]; cited from earlier work
T1 construct: The Tiam1 PDZ domain was purified by nickel-chelate (GE-Healthcare) and size-exclusion chromatography; His6 (N, cleaved yes); made in house; host or cells: Escherichia coli BL21(DE3)
Text: Table 1 Tiam1-PDZ:peptide complexes and free energies used for model fitting. | column: Exp.^a || Table 2 Tiam1-PDZ:peptide complexes and free energies not used for model fitting. | column: Exp.^a || Table 4 Alchemical free energy simulation (FEP) results. | column: Exp. || (+ 3 further places)

[2] = target: T1, wildtype Tiam1 PDZ domain (WT); assay: Fluorescence anisotropy binding of dansylated peptides; conditions: for Exp. relative binding free energy ΔΔG: relative to WT:Sdc1, this work, dansylated peptide 5–10 μM, 20 mM sodium phosphate, 50 mM NaCl, pH 6.8, 25°C, triplicate
Method: Typically, E. coli cells were grown at 37°C in Luria-Bertani (LB) medium supplemented with ampicillin (100 μg/mL) under vigorous agitation until an A600 of 0.6–0.8 was reached. Cultures were subsequently cooled to 18°C and protein expression was induced by the addition of isopropyl 1-thio-β-d-galactopyranoside (IPTG) to 1 mM final concentration. Induced cells were incubated for an additional 16–18 h at 18°C and harvested by centrifugation. The Tiam1 PDZ domain was purified by nickel-chelate (GE-Healthcare) and size-exclusion chromatography (Shepherd et al., [2010]). […] Undigested protein, cleaved His6 tag and His-tagged rTEV were separated from Tiam1 PDZ domain by nickel-chelate chromatography. The final yield was 20 mg of PDZ protein (>98% pure as judged by SDS-PAGE) from 1 L of culture. Samples were used immediately or lyophilized and stored at […].
All peptides were chemically synthesized by GenScript Inc. (Piscataway, NJ) and judged to be >95% pure based on analytical HPLC and mass spectrometry. Peptides were dansylated at their N-terminus. Peptide concentrations were determined by absorbance measurements (A280) using their predicted extinction coefficient. The peptides used in this study were Syndecan1 (Sdc1) point mutants and double mutants: Sdc1 (residues 303–310 of the full Syndecan protein: TKQEEFYACOOH), Sdc1-A0M (residues 303–310: TKQEEFYMCOOH), Sdc1-F2R (residues 303–310: TKQEERYACOOH), Sdc1-F2R/A0M (residues 303–310: TKQEERYMCOOH), Sdc1-F2A (residues 303–310: TKQEEAYACOOH), Sdc1-F2N (residues 303-310: TKQEENYACOOH), Sdc1-F2I (residues 303–310: TKQEEIYACOOH), Sdc1-E4L (residues 303–310: TKQLEFYACOOH), Sdc1-E3D/Y1T (residues 303–310: TKQEDFTACOOH), and Sdc1-E3T/Y1K (residues 303–310: TKQETFKACOOH). Notice that here and below, for the Sdc1 and other peptides, we number residue positions counting backwards from the peptide C-terminus (position 0). Thus, Sdc1-F2R is mutated at the third position from the C-terminus, which is usually called “position −2” (Shepherd and Fuentes, [2011]). We drop the negative sign to keep the notation simple.
Fluorescence anisotropy was used to monitor the binding of Tiam1 PDZ domain proteins to dansylated peptides. Anisotropy measurements were carried out on a Fluorolog3 (Jobin Yvon, Horiba, NJ) spectrofluorimeter (γex = 340 and γem = 550 nm). All data collection, fitting, and thermodynamic analyses were performed as previously described (Shepherd et al., [2011]). Binding experiments were conducted in 1.3 mL of binding buffer (20 mM sodium phosphate, 50 mM NaCl and pH 6.8) containing peptide at a concentration of 5–10 μM. Measurements were made in a 2 mL quartz cuvette that was stirred and maintained at constant 25°C temperature. The slit widths for the control of excitation and emission intensity were adjusted to the signal-to-noise ratio and maximum intensity and set in the range of 6–9 nm. A ratio of 1:100 and 1:10 dilutions of the stock PDZ protein solution (~1 mM) were prepared in binding buffer. For each experiment, 20–30 individual titration steps were performed until the sample had little or no change in anisotropy. The change in fluorescence anisotropy was plotted against protein concentration and fit to a standard hyperbolic ligand-binding curve. Each titration was carried out in triplicate.

[3] = target: Syndecan-1 (Sdc1) peptide (Homo sapiens) (UniProt P18827); conditions: cited from earlier work
Tiam1 PDZ domain K912E = conditions: relative to WT:Sdc1; ref Shepherd et al., [2011]; Liu et al., [2013]; cited from earlier work
Text: (§1) Table 1 Tiam1-PDZ:peptide complexes and free energies used for model fitting. | column: Exp.^a

Tiam1 PDZ domain L915F = conditions: relative to WT:Sdc1; ref Shepherd et al., [2011]; Liu et al., [2013]; cited from earlier work
Text: as §1

Tiam1 PDZ domain L911M = conditions: relative to WT:Sdc1; ref Shepherd et al., [2011]; Liu et al., [2013]; cited from earlier work
Text: as §1

Tiam1 PDZ domain L920V = conditions: ref Shepherd et al., [2011], Liu et al., [2013], cited from earlier work; for Exp. relative binding free energy ΔΔG: relative to WT:Sdc1
Text: Table 1 Tiam1-PDZ:peptide complexes and free energies used for model fitting. | column: Exp.^a || Tables 1, 2 list the 44 peptide and protein variants for which experimental binding data are available along with the corresponding binding free energy differences (ΔΔG) relative to the wildtype:Sdc1 complex (WT:Sdc1), taken as a reference. Notice that positions within each peptide ligand are numbered backwards from the C-terminus (“position 0”). For two complexes, experimental measurements were not available and ΔΔG was obtained in this work using rigorous alchemical free energy simulations (see below). Seventeen of the complexes involve Tiam1 mutations at one or more of four positions. These ...

[4] = system: Tiam1 PDZ domain L911M,K912E; conditions: relative to WT:Sdc1; ref Shepherd et al., [2011]; Liu et al., [2013]; cited from earlier work
Text: (§2) Table 1 Tiam1-PDZ:peptide complexes and free energies used for model fitting. | column: Exp.^a || Table 2 Tiam1-PDZ:peptide complexes and free energies not used for model fitting. | column: Exp.^a

[5] = system: Tiam1 PDZ domain L915F,L920V; conditions: relative to WT:Sdc1; ref Shepherd et al., [2011]; Liu et al., [2013]; cited from earlier work
Text: as §2

[6] = system: Tiam1 PDZ domain quadruple mutant (QM); conditions: relative to WT:Sdc1; ref Shepherd et al., [2011]; Liu et al., [2013]; cited from earlier work
Text: as §2

T1 sequence (Q13009 841-930 limits assumed): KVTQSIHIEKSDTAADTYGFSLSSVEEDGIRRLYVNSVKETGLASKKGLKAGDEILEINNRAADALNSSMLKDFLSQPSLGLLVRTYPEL
Sequence of Syndecan-1 (Sdc1) peptide (Homo sapiens) (P18827 23-310): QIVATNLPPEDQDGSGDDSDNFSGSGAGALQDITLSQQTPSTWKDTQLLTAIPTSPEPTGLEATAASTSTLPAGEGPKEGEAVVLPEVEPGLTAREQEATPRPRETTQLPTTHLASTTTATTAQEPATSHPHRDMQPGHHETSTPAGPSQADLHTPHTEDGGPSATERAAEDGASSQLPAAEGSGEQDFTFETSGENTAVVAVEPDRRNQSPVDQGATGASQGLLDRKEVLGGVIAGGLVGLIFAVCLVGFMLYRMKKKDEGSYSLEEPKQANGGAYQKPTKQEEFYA
Sequence of Tiam1 PDZ (Q13009 842-911): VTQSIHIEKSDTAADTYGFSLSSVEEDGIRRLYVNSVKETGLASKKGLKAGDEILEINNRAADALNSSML

Substance: SSRKEYYA [Consensus]
- Exp. relative binding free energy ΔΔG [1]: 0.84 kcal/mol

Substance: YAAYRYRA
- Exp. relative binding free energy ΔΔG [1]: ≥ 1.32^g kcal/mol

Substance: TKQEERYACOOH [Sdc1-F2R, Sdc1 point mutant, Arg at position 2]
- Exp. relative binding free energy ΔΔG [2]: ≥ 1.32 kcal/mol
- affinity for WT (in words) ([2]; this work): does not have a detectable affinity

Substance: Tiam1 PDZ (from UniProt Q13009)
- pKd [3]: 4.57

Substance: TKQEEIYACOOH [Sdc1.F2I, Sdc1 point mutant, Ile at position 2]
- Exp. relative binding free energy ΔΔG [2]: 0.80^e kcal/mol and 0.80 kcal/mol

Substance: YAAGRKHF
- Exp. relative binding free energy ΔΔG [1]: ≥ 1.32^g kcal/mol

Substance: TKQLEFYACOOH [Sdc1.E4L, Sdc1 point mutant, Leu at position 4]
- Exp. relative binding free energy ΔΔG [2]: 0.56^e kcal/mol

Substance: YAAQKHFH
- Exp. relative binding free energy ΔΔG [1]: ≥ 1.32^g kcal/mol

Substance: TKQEEFYACOOH [Sdc1, C-terminal peptide of Syndecan1, residues 303–310]
- Exp. relative binding free energy ΔΔG (Tiam1 PDZ domain K912E): 0.97 kcal/mol
- Exp. relative binding free energy ΔΔG (Tiam1 PDZ domain L915F): 0.65 kcal/mol
- Exp. relative binding free energy ΔΔG (Tiam1 PDZ domain L911M): 0.15 kcal/mol
- Exp. relative binding free energy ΔΔG (Tiam1 PDZ domain L920V): 0.31 kcal/mol
- Exp. relative binding free energy ΔΔG [1]: 0.00 kcal/mol
- Exp. relative binding free energy ΔΔG [4]: 1.21 kcal/mol
- Exp. relative binding free energy ΔΔG [5]: 1.32 kcal/mol
- Exp. relative binding free energy ΔΔG [6]: 0.89 kcal/mol

Substance: YAAKAFRF [peptide from a combinatorial library]
- Exp. relative binding free energy ΔΔG [1]: 1.17 kcal/mol

Substance: YAARKFAK
- Exp. relative binding free energy ΔΔG [1]: ≥ 1.32^g kcal/mol

Substance: NKDKEYYV [Neur, peptide corresponding to the C-terminus of Neurexin]
- Exp. relative binding free energy ΔΔG [4]: 1.25 kcal/mol
- Exp. relative binding free energy ΔΔG [5]: 1.08 kcal/mol
- Exp. relative binding free energy ΔΔG [6]: 0.32 kcal/mol

Substance: TKQETFKACOOH [Sdc1.E3T, Y1K, Sdc1 double mutant]
- Exp. relative binding free energy ΔΔG [2]: 1.33^e kcal/mol
- Exp. relative binding free energy ΔΔG ([2]; listed as Sdc1-E3T,Y1K): 1.33 kcal/mol

Substance: TKQEENYACOOH [Sdc1-F2N, Sdc1 point mutant, Asn at position 2]
- Exp. relative binding free energy ΔΔG [2]: ≥ 1.32 kcal/mol

Substance: TKQEEFYMCOOH [Sdc1.A0M, Sdc1 point mutant, Met at position 0]
- Exp. relative binding free energy ΔΔG [2]: 1.56^d kcal/mol and 1.56 kcal/mol

Substance: YAAEKYWA [peptide from a combinatorial library]
- Exp. relative binding free energy ΔΔG [1]: 0.72 kcal/mol

Substance: YAALIHKF
- Exp. relative binding free energy ΔΔG [1]: ≥ 1.32^g kcal/mol

Substance: ENQKEYFF [Caspr4, peptide corresponding to the C-terminus of Caspr4]
- Exp. relative binding free energy ΔΔG (Tiam1 PDZ domain K912E): 0.46 kcal/mol
- Exp. relative binding free energy ΔΔG (Tiam1 PDZ domain L915F): 0.48 kcal/mol
- Exp. relative binding free energy ΔΔG (Tiam1 PDZ domain L911M): -0.39 kcal/mol
- Exp. relative binding free energy ΔΔG (Tiam1 PDZ domain L920V): -0.54 kcal/mol
- pKd (Tiam1 PDZ domain L920V; strongest binding in the dataset): 4.97
- Exp. relative binding free energy ΔΔG [1]: -0.21 kcal/mol
- Exp. relative binding free energy ΔΔG [4]: 0.04 kcal/mol
- Exp. relative binding free energy ΔΔG [5]: 0.62 kcal/mol
- Exp. relative binding free energy ΔΔG [6]: -0.23 kcal/mol

Substance: TKQEEAYACOOH [Sdc1-F2A, Sdc1 point mutant, Ala at position 2]
- Exp. relative binding free energy ΔΔG [2]: ≥ 1.32 kcal/mol

Substance: TKQEDFTACOOH [Sdc1.E3D, Y1T, Sdc1 double mutant]
- Exp. relative binding free energy ΔΔG [2]: 0.87^e kcal/mol

Substance: YAAKRTYV
- Exp. relative binding free energy ΔΔG [1]: ≥ 1.32^g kcal/mol
